For one experiment, the target named is Mu-type opioid receptor (Rattus norvegicus, UniProt P33535). Nature of the experiment: Displacement of [3H]DAMGO from mu opioid receptor in rat brain homogenate. Format: tissue-based. In general terms: In a radioligand displacement assay an active substance lowers the binding of a labelled ligand.
Sequence of Mu-type opioid receptor (P33535 whole entry): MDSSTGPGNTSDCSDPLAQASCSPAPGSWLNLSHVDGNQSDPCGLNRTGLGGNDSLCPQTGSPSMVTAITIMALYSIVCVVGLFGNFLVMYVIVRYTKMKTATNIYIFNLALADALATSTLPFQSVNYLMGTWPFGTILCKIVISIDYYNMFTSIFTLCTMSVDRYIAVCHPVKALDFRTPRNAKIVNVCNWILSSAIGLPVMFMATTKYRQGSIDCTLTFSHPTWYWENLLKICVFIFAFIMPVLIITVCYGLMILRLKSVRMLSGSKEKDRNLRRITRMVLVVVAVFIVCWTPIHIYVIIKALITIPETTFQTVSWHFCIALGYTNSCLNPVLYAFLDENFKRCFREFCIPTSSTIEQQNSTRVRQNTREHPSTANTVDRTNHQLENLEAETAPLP
Compound `CCN[C@H](CN[C@H](CN[C@@H](Cc1ccccc1)CN1CCC[C@H]1CN[C@H](CN[C@H](CN)CCSC)Cc1ccc(O)cc1)Cc1ccc(O)cc1)Cc1ccc(O)cc1` yielded a concentration for half-maximal inhibition (IC50) of 34 nM.
The same measure, in the same setting: the value for `CNC[C@H](Cc1ccc(O)cc1)N(Cc1ccccc1)C[C@@H](N)Cc1ccc(O)cc1` was 882 nM; that for `CCN[C@H](CN[C@H](CN[C@H](CN)Cc1ccc(O)cc1)Cc1ccc(O)cc1)Cc1ccc(O)cc1` was 138 nM; that for `CCN[C@H](CN[C@H](CN[C@H](CN)Cc1ccccc1)Cc1ccc(O)cc1)Cc1ccc(O)cc1` was 47 nM.
Compound `CCN[C@H](CN[C@H](CN[C@H](CN[C@H](CN[C@@H](CN[C@@H](CN)CO)[C@@H](C)O)Cc1ccccc1)Cc1ccc(O)cc1)Cc1ccc(O)cc1)Cc1ccc(O)cc1` came in with an IC50 of 163 nM. Against the preceding compound, the IC50 is about 3.5-fold higher.
Still for that read-out and setting: the value for `CCN[C@H](CN[C@H](CN[C@@H](Cc1ccc(O)cc1)CN1CCC[C@H]1CN[C@@H](Cc1ccc(O)cc1)CN1CCC[C@H]1CN)Cc1ccc(O)cc1)Cc1ccc(O)cc1` was 79 nM; that for `CCN[C@H](CN[C@H](CN[C@@H](Cc1ccc(O)cc1)CN1CCC[C@H]1CN[C@H](CN[C@H](CN)Cc1ccccc1)Cc1ccc(O)cc1)Cc1ccc(O)cc1)Cc1ccc(O)cc1` was 83 nM; that for `CCN[C@H](CN[C@H](CN[C@H](CN[C@H](CN[C@@H](CN1CCC[C@H]1CN)[C@@H](C)O)Cc1ccccc1)Cc1ccc(O)cc1)Cc1ccc(O)cc1)Cc1ccc(O)cc1` was 155 nM.
On to `CCN[C@H](CN[C@H](CN[C@H](CN[C@H](CN[C@H](CN[C@H](CN)CCSC)Cc1ccc(O)cc1)Cc1ccccc1)Cc1ccc(O)cc1)Cc1ccc(O)cc1)Cc1ccc(O)cc1`, for which the half-inhibitory concentration (IC50) was 260 nM.
Same read-out and setting: as for `CCN[C@H](CN[C@H](CN[C@@H](Cc1ccccc1)CN1CCC[C@H]1CN[C@@H](CN[C@H](CN)CCSC)[C@@H](C)O)Cc1ccc(O)cc1)Cc1ccc(O)cc1`, the figure is 14 nM; as for `CCN[C@H](CN[C@H](CN[C@@H](Cc1ccc(O)cc1)CN1CCC[C@H]1CN[C@@H](CN[C@H](CN)Cc1ccccc1)[C@@H](C)O)Cc1ccc(O)cc1)Cc1ccc(O)cc1`, 128 nM.
Same read-out and setting: the value for `CCN[C@H](CN[C@H](CN[C@@H](Cc1ccc(O)cc1)CN1CCC[C@H]1CN[C@@H](CN1CCC[C@H]1CN)[C@@H](C)O)Cc1ccc(O)cc1)Cc1ccc(O)cc1` was 41 nM.
On the same count and under the same terms, as for `CCN[C@H](CN[C@H](CN[C@H](CN[C@H](CN[C@H](CN[C@@H](CN)CO)Cc1ccc(O)cc1)Cc1ccccc1)Cc1ccc(O)cc1)Cc1ccc(O)cc1)Cc1ccc(O)cc1`, the figure is 345 nM; as for `CCN[C@H](CN[C@H](CN[C@@H](Cc1ccc(O)cc1)CN1CCC[C@H]1CN[C@@H](CN[C@H](CN)CCSC)[C@@H](C)O)Cc1ccc(O)cc1)Cc1ccc(O)cc1`, 112 nM; as for `CCN[C@H](CN[C@H](CN[C@@H](Cc1ccccc1)CN1CCC[C@H]1CN[C@@H](CN1CCC[C@H]1CN)[C@@H](C)O)Cc1ccc(O)cc1)Cc1ccc(O)cc1`, 15 nM.
For `CCN[C@H](CN[C@H](CN[C@@H](Cc1ccccc1)CN1CCC[C@H]1CN[C@@H](CN[C@@H](CN)CO)[C@@H](C)O)Cc1ccc(O)cc1)Cc1ccc(O)cc1`, the IC50 worked out at 19 nM.
The same measure, in the same setting: the value for `CCN[C@H](CN[C@H](CN[C@H](CN[C@H](CN[C@@H](Cc1ccc(O)cc1)CN1CCC[C@H]1CN)Cc1ccccc1)Cc1ccccc1)Cc1ccc(O)cc1)Cc1ccc(O)cc1` was 48 nM.
For `CCN[C@H](CN[C@H](CN[C@@H](Cc1ccc(O)cc1)CN1CCC[C@H]1CN[C@H](CN[C@H](CN)CCSC)Cc1ccc(O)cc1)Cc1ccc(O)cc1)Cc1ccc(O)cc1`, the 50% inhibitory concentration (IC50) came to 113 nM.
`CCN[C@H](CN[C@H](CN[C@@H](Cc1ccccc1)CN1CCC[C@H]1CN[C@@H](CN[C@H](CN)Cc1ccc(O)cc1)[C@@H](C)O)Cc1ccc(O)cc1)Cc1ccc(O)cc1` returned an IC50 of 20 nM.
Same read-out and setting: the value for `CCN[C@H](CN[C@H](CN[C@@H](Cc1ccccc1)CN1CCC[C@H]1CN[C@H](CN[C@H](CN)Cc1ccccc1)Cc1ccc(O)cc1)Cc1ccc(O)cc1)Cc1ccc(O)cc1` was 27 nM; that for `CCN[C@H](CN[C@H](CN[C@@H](Cc1ccccc1)CN1CCC[C@H]1CN[C@H](CN[C@H](CN)Cc1ccc(O)cc1)Cc1ccc(O)cc1)Cc1ccc(O)cc1)Cc1ccc(O)cc1` was 27 nM.
Compound `CCN[C@H](CN[C@H](CN[C@@H](Cc1ccccc1)CN1CCC[C@H]1CN[C@@H](Cc1ccc(O)cc1)CN1CCC[C@H]1CN)Cc1ccc(O)cc1)Cc1ccc(O)cc1` had an IC50 of 18 nM.
The same measure, in the same setting: as for `CCN[C@H](CN[C@H](CN[C@H](CN[C@H](CN[C@H](CN[C@H](CN)Cc1ccccc1)Cc1ccc(O)cc1)Cc1ccccc1)Cc1ccccc1)Cc1ccc(O)cc1)Cc1ccc(O)cc1`, the figure is 176 nM; as for `CCN[C@H](CN[C@H](CN[C@@H](Cc1ccccc1)CN1CCC[C@H]1CN[C@H](CN[C@H](CN)CO)Cc1ccc(O)cc1)Cc1ccc(O)cc1)Cc1ccc(O)cc1` (stereo in doubt; 5), 19 nM; as for `CCN[C@H](CN[C@H](CN[C@@H](Cc1ccccc1)CN1CCC[C@H]1CN[C@H](CN)Cc1ccc(O)cc1)Cc1ccc(O)cc1)Cc1ccc(O)cc1`, 24 nM.
On the same count and under the same terms, as for `CCN[C@H](CN[C@H](CN[C@H](CN[C@H](CN[C@H](CN[C@H](CN)Cc1ccc(O)cc1)Cc1ccc(O)cc1)Cc1ccccc1)Cc1ccc(O)cc1)Cc1ccc(O)cc1)Cc1ccc(O)cc1`, the figure is 261 nM; as for `CCN[C@H](CN[C@H](CN[C@@H](Cc1ccccc1)CN1CCC[C@H]1CN[C@H](CN[C@H](CN)CO)Cc1ccc(O)cc1)Cc1ccc(O)cc1)Cc1ccc(O)cc1` (stereo in doubt), 67 nM.
The same measure, in the same setting: as for `CCN[C@H](CN[C@H](CN[C@H](CN[C@H](CN[C@H](CN[C@H](CN)Cc1ccccc1)Cc1ccc(O)cc1)Cc1ccccc1)Cc1ccc(O)cc1)Cc1ccc(O)cc1)Cc1ccc(O)cc1`, the figure is 258 nM.
The compound `CCN[C@H](CN[C@H](CN[C@H](CN[C@H](CN[C@@H](CN[C@H](CN)Cc1ccc(O)cc1)[C@@H](C)O)Cc1ccccc1)Cc1ccc(O)cc1)Cc1ccc(O)cc1)Cc1ccc(O)cc1` came in with an IC50 of 200 nM.
In turn, `CCN[C@H](CN[C@H](CN[C@H](CN[C@H](CN[C@H](CN[C@H](CN)Cc1ccc(O)cc1)Cc1ccc(O)cc1)Cc1ccccc1)Cc1ccccc1)Cc1ccc(O)cc1)Cc1ccc(O)cc1` gave a concentration for half-maximal inhibition (IC50) of 95 nM.
Turning to `CCN[C@H](CN[C@H](CN[C@@H](Cc1ccc(O)cc1)CN1CCC[C@H]1CN[C@H](CN[C@H](CN)CO)Cc1ccc(O)cc1)Cc1ccc(O)cc1)Cc1ccc(O)cc1`, the concentration for half-maximal inhibition (IC50) turned out to be 89 nM.
Turning to `CCN[C@H](CN[C@H](CN[C@@H](Cc1ccc(O)cc1)CN1CCC[C@H]1CN)Cc1ccc(O)cc1)Cc1ccc(O)cc1`, the IC50 came to 13 nM.
On to `CCN[C@H](CN[C@H](CN[C@H](CN[C@H](CN[C@@H](CN[C@@H](CN)CO)[C@@H](C)O)Cc1ccccc1)Cc1ccccc1)Cc1ccc(O)cc1)Cc1ccc(O)cc1`, for which the half-maximal inhibitory concentration (IC50) turned out to be 90 nM. Compared with the last compound, the IC50 is about 6.9-fold higher.
The compound `CCN[C@H](CN[C@H](CN[C@@H](Cc1ccc(O)cc1)CN1CCC[C@H]1CN[C@@H](CN[C@H](CN)Cc1ccc(O)cc1)[C@@H](C)O)Cc1ccc(O)cc1)Cc1ccc(O)cc1` yielded an IC50 of 61 nM.
Same read-out and setting: as for `CCN[C@H](CN[C@H](CN[C@H](CN[C@H](CN[C@@H](CN1CCC[C@H]1CN)[C@@H](C)O)Cc1ccccc1)Cc1ccccc1)Cc1ccc(O)cc1)Cc1ccc(O)cc1`, the figure is 82 nM.
For the compound `CCN[C@H](CN[C@H](CN[C@H](CN[C@H](CN[C@H](CN)Cc1ccc(O)cc1)Cc1ccc(O)cc1)Cc1ccc(O)cc1)Cc1ccc(O)cc1)Cc1ccc(O)cc1`, the half-maximal inhibitory concentration (IC50) turned out to be 146 nM.
On the same count and under the same terms, the value for `NC[C@H](Cc1ccc(O)cc1)NC[C@@H](N)Cc1ccc(O)cc1` was 6040 nM; that for `CCN[C@H](CN[C@H](CN[C@H](CN[C@H](CN[C@@H](CN[C@H](CN)Cc1ccc(O)cc1)[C@@H](C)O)Cc1ccccc1)Cc1ccccc1)Cc1ccc(O)cc1)Cc1ccc(O)cc1` was 78 nM; that for `CCN[C@H](CN[C@H](CN[C@H](CN[C@H](CN[C@@H](CN[C@H](CN)CCSC)[C@@H](C)O)Cc1ccccc1)Cc1ccccc1)Cc1ccc(O)cc1)Cc1ccc(O)cc1` was 115 nM.
On the same count and under the same terms, as for `CCN[C@H](CN[C@H](CN[C@H](CN[C@H](CN)Cc1ccc(O)cc1)Cc1ccc(O)cc1)Cc1ccc(O)cc1)Cc1ccc(O)cc1`, the figure is 96 nM; as for `CCN[C@H](CN[C@H](CN)Cc1ccc(O)cc1)Cc1ccc(O)cc1`, 344 nM; as for `CCN[C@H](CN[C@H](CN[C@H](CN[C@H](CN[C@@H](CN[C@H](CN)CCSC)[C@@H](C)O)Cc1ccccc1)Cc1ccc(O)cc1)Cc1ccc(O)cc1)Cc1ccc(O)cc1`, 181 nM.
On to `CCN[C@H](CN[C@H](CN[C@@H](Cc1ccc(O)cc1)CN1CCC[C@H]1CN[C@H](CN[C@H](CN)Cc1ccc(O)cc1)Cc1ccc(O)cc1)Cc1ccc(O)cc1)Cc1ccc(O)cc1`, for which the 50% inhibitory concentration (IC50) amounted to 87 nM.
The same measure, in the same setting: the value for `CCN[C@H](CN[C@H](CN[C@@H](Cc1ccccc1)CN1CCC[C@H]1CN[C@@H](CN[C@H](CN)Cc1ccccc1)[C@@H](C)O)Cc1ccc(O)cc1)Cc1ccc(O)cc1` was 19 nM; that for `CCN[C@H](CN[C@H](CN[C@H](CN[C@H](CN[C@H](CN[C@@H](CN)CO)Cc1ccc(O)cc1)Cc1ccccc1)Cc1ccccc1)Cc1ccc(O)cc1)Cc1ccc(O)cc1` was 66 nM.
The compound `CCN[C@H](CN[C@H](CN[C@@H](Cc1ccc(O)cc1)CN1CCC[C@H]1CN[C@@H](CN[C@@H](CN)CO)[C@@H](C)O)Cc1ccc(O)cc1)Cc1ccc(O)cc1` returned an IC50 of 32 nM. This IC50 lies about 2.1-fold lower than the previous one.
The same measure, in the same setting: as for `CCN[C@H](CN[C@H](CN[C@H](CN[C@H](CN[C@H](CN[C@H](CN)CCSC)Cc1ccc(O)cc1)Cc1ccccc1)Cc1ccccc1)Cc1ccc(O)cc1)Cc1ccc(O)cc1`, the figure is 126 nM; as for `CCN[C@H](CN[C@H](CN[C@H](CN[C@H](CN[C@@H](Cc1ccc(O)cc1)CN1CCC[C@H]1CN)Cc1ccccc1)Cc1ccc(O)cc1)Cc1ccc(O)cc1)Cc1ccc(O)cc1`, 148 nM; as for `CCN[C@H](CN[C@H](CN[C@H](CN[C@H](CN[C@@H](CN[C@H](CN)Cc1ccccc1)[C@@H](C)O)Cc1ccccc1)Cc1ccccc1)Cc1ccc(O)cc1)Cc1ccc(O)cc1`, 108 nM.

The target in the next experiment is Delta-type opioid receptor (Homo sapiens, UniProt P41143). Nature of the experiment: Displacement of [3H]DPDE from delta opioid receptor.
Sequence of Delta-type opioid receptor (P41143 whole entry): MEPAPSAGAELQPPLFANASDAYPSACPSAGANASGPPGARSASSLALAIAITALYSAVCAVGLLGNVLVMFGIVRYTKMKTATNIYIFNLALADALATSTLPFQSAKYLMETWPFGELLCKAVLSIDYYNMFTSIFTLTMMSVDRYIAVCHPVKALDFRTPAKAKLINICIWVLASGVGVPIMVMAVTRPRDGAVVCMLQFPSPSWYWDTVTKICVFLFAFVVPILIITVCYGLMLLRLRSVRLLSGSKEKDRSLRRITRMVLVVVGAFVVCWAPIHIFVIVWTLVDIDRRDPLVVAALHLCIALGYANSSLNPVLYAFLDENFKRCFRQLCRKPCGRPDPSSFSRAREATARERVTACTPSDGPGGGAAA
Take `CNC[C@H](Cc1ccc(O)cc1)N(Cc1ccccc1)C[C@@H](N)Cc1ccc(O)cc1`: the concentration for half-maximal inhibition (IC50) was determined as 35600 nM.
On the same count and under the same terms, as for `CN[C@@H](Cc1ccc(O)cc1)CN(C)[C@H](CNCc1ccccc1)Cc1ccc(O)cc1`, the figure is 3970 nM.

For a further experiment, the target named is Kappa-type opioid receptor (Homo sapiens, UniProt P41145). Nature of the experiment: Displacement of [3H]U-69593 from kappa opioid receptor.
Sequence of Kappa-type opioid receptor (P41145 whole entry): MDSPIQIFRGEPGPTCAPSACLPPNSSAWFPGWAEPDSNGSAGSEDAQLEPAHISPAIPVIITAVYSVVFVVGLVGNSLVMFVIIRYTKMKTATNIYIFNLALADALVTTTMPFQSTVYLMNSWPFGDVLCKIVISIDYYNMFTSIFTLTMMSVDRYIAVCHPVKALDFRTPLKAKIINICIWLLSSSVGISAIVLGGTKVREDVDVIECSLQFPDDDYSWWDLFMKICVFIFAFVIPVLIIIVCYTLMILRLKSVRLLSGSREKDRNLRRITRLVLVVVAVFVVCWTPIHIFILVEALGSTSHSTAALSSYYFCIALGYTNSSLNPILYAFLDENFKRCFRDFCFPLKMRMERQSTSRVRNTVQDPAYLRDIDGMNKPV
Take `CNC[C@H](Cc1ccc(O)cc1)N(Cc1ccccc1)C[C@@H](N)Cc1ccc(O)cc1`: the half-maximal inhibitory concentration (IC50) was 14400 nM.
In turn, `CN[C@@H](Cc1ccc(O)cc1)CN(C)[C@H](CNCc1ccccc1)Cc1ccc(O)cc1` displayed an IC50 of 3850 nM.
Compound `NC[C@H](Cc1ccc(O)cc1)NC[C@@H](N)Cc1ccc(O)cc1` displayed a concentration for half-maximal inhibition (IC50) of 32200 nM.

In general, IC50 refers to the concentration that gives 50% inhibition.

For the origin of these results see ChEMBL document CHEMBL1145313, “Identification of potent and highly selective chiral tri-amine and tetra-amine mu opioid receptors ligands: an example of lead optimization using mixture-based libraries” (Bioorg Med Chem Lett, 2006).
